# Patent publication US6727084B1, “Cold-active beta-galactosidase, the process for its preparation and the use thereof” (Universite de Liege, priority 1999, dated 2004)
# Entries after “also recorded” stand apart in the source; their conditions may differ.
# Key:
# [1] = target: T1, E. coli β-galactosidase (Sigma G2513) (Escherichia coli, UniProt P00722); experiment: biochemical; conditions: read-out: stimulation of enzyme activity by 2-mercaptoethanol (factor)
# Protocol: (§1) The β-galactosidase from Escherichia coli used as a control was from Sigma (G2513).
# (§2) The effect of K+ was determined by assaying activity in 100 mM phosphate buffer containing KCl at concentrations from 0 to 100 mM. LMG P-19143 β-galactosidase optimal activity was recorded using a KCl concentration of 80 mM whereas the E. coli β-galactosidase optimal activity was recorded at a KCl concentration of 40 mM. At theses concentrations, KCl stimulated the activity of both enzymes by a factor of 1.5.
# (§3) Optimal activity of the LMG P-19143 enzyme was recorded at 80 mM 2-mercaptoethanol and that of E. coli enzyme at 40 mM 2-mercaptoethanol. At these concentrations, the reducing agent stimulated LMG P-19143 enzyme activity twofold and E. coli enzyme by a factor of 1.5.
# [2] = target: T2, Pseudoalteromonas haloplanktis LMG P-19143 cold-active β-galactosidase (lac Z), native, SEQ ID NO: 2 (Pseudoalteromonas haloplanktis, UniProt P81650); experiment: effect of 2-mercaptoethanol on LMG P-19143 β-galactosidase activity; assay type: biochemical; design: ORF of 1038 residues; conditions: 80 mM 2-mercaptoethanol (optimal activity), 100 mM phosphate buffer; ONPG
# Protocol: as §2, §3
# [3] = target: T2, Pseudoalteromonas haloplanktis LMG P-19143 cold-active β-galactosidase (lac Z), native, SEQ ID NO: 2; experiment: biochemical; conditions: pH 7.5, read-out: residual activity after EDTA treatment (% of initial activity)
# Protocol: The assay of β-galactosidase was carried out using 3 mM ONPG (ortho-nitrophenyl-β-galactopyranoside) as a chromogenic substrate in 100 mM sodium phosphate buffer, pH 7,3, 1 mM MgCl2, 100 mM 2-mercaptoethanol (Sigma). Activities toward the chromogenic substrate were recorded in a thermostated Uvicon 860 Spectrophotometer (Kontron) at 25° C. and calculated on the basis of an extinction coefficient for o-nitrophenol of 3.5 mM^−1 cm^−1 at 410 nm (Miller, J. H. and Reznikoff, W. S., Eds. 1978; The Operon. Cold Spring Harbor Laboratory Press, N.Y.). Assays using lactose as a substrate were carried out using various concentrations of lactose. The reaction was stopped by boiling the sample in a water bath for 3 minutes. The galactose dehydrogenase assay was used to measure the amount of galactose released by the enzyme (Schachter H. 1975, Enzymatic microassays for D-Mannose, D-Glucose, D-Galactose, L-Fucose, and D-Glucosamine. Methods Enzymol., 41: 3-10.) The specific activity of β-galactosidase is defined as micro-moles of galactose released per minute per mg of protein.
# To determine the effect of divalent metal ions on activity, assays were performed in 100 mM phosphate buffer at 25° C. and pH 7.5. The enzyme preparation was treated with 5 mM EDTA to complex metal ions.
# [4] = target: T1, E. coli β-galactosidase (Sigma G2513); experiment: kinetics of E. coli β-galactosidase (control) with ONPG as substrate; assay type: biochemical
# Description: (§4) The definition of enzyme activity units can be defined according to the substrate used with lactose as a substrate, the unit of activity is defined as the amount of enzyme which releases one micro-mole glucose in one minute under standard reaction conditions (temperature, pH). Another commonly used substrate is ortho-nitrophenyl-β-D galactopyranoside (ONPG) and in this case, the unit of activity is defined as the amount of enzyme which hydrolyses one micro-mole of ONPG in one minute under standard reaction conditions.
# as §1
# (§5) The activation energy (Ea) was determined from the slope (−Ea/R) of Arrhenius plot and the thermodynamic activation parameters of the reaction were calculated according to the following equations: […]
# (§6) At 8° C., the kcat (s^−1) of the LMG P-19143 enzyme is twice as high as that of E. coli enzyme. Theses curves have been used to construct Arrhenius plots and to calculate the activation energy parameters of the reaction as shown in table 2.
# (§7) Assays were performed with ONPG as a substrate at various concentrations and at different temperatures to determine Km and Vmax values.
# [5] = target: T2, Pseudoalteromonas haloplanktis LMG P-19143 cold-active β-galactosidase (lac Z), native, SEQ ID NO: 2; experiment: kinetics of LMG P-19143 β-galactosidase with ONPG as substrate; assay type: biochemical; design: ORF of 1038 residues
# Description: as §4, §5, §6, §7
# [6] = target: T2, Pseudoalteromonas haloplanktis LMG P-19143 cold-active β-galactosidase (lac Z), native, SEQ ID NO: 2; experiment: kinetics of LMG P-19143 β-galactosidase with lactose as substrate (galactose dehydrogenase assay); assay type: biochemical; design: ORF of 1038 residues; conditions: 25° C.
# Description: as §4
# Km was also determined at 25° C. with lactose (1 mM to 50 mM) as a substrate.
# T2 sequence (P81650 whole entry): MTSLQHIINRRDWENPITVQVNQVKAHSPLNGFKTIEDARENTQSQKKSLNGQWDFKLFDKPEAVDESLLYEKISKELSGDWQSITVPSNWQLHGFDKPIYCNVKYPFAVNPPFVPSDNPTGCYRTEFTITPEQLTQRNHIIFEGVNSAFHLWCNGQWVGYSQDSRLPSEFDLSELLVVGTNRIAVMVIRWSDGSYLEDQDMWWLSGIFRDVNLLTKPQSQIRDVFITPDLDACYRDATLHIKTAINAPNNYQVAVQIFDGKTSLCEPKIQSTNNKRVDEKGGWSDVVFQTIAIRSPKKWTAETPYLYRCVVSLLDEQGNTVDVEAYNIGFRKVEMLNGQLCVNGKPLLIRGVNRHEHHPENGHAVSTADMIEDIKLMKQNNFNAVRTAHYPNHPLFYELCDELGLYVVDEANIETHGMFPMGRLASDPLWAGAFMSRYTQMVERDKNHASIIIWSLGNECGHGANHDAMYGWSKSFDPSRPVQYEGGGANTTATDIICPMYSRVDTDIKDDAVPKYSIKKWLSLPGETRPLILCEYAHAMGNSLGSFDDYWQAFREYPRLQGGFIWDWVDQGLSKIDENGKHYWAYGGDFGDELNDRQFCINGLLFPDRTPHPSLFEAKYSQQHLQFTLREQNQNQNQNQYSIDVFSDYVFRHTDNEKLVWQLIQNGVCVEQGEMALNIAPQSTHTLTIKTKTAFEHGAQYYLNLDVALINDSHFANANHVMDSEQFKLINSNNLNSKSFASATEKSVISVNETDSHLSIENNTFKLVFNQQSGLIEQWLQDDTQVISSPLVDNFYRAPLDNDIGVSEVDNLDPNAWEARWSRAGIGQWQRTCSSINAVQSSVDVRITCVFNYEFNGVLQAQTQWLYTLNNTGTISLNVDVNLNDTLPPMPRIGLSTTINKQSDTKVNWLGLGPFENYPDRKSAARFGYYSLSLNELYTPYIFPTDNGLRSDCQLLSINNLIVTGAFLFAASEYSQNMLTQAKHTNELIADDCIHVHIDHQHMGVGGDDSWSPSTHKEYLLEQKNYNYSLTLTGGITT
# T1 sequence (P00722 whole entry): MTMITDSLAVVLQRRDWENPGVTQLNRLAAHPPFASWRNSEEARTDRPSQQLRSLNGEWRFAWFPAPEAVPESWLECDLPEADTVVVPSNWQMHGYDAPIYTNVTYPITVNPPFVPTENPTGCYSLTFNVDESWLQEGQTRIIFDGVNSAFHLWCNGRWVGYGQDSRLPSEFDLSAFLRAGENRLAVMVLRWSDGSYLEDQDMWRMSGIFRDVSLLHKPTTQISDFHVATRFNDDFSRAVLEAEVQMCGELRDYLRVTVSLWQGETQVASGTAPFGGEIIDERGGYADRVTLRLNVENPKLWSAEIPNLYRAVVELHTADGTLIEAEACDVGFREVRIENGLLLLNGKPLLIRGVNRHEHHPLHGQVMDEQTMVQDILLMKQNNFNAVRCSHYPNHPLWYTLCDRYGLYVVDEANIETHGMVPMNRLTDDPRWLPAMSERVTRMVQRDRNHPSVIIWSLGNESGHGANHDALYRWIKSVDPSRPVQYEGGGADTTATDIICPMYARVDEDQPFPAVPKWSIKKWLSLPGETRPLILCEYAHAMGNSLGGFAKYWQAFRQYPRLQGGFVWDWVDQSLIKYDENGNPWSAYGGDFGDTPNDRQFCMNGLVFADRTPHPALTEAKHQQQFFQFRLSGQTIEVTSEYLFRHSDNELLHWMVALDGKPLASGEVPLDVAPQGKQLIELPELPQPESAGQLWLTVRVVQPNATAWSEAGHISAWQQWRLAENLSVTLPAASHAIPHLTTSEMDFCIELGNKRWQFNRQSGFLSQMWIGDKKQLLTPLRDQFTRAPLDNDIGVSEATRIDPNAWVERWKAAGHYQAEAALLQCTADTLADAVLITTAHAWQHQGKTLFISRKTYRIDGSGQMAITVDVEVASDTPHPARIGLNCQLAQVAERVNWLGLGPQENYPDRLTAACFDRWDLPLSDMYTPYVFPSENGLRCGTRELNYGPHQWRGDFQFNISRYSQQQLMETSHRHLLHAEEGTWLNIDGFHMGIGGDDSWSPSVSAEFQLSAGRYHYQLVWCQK
structure (smiles),measurement,setting,value
OCCS [2-mercaptoethanol],fold induction at 40000 µM,[1],1.5
same,stimulation of enzyme activity by 2-mercaptoethanol,[2],twofold
O=C(O)CN(CCN(CC(=O)O)CC(=O)O)CC(=O)O [EDTA],remaining activity at 5000 µM,[3],< 10%
"O=[N+]([O-])c1ccccc1O[C@@H]1O[C@H](CO)[C@H](O)[C@H](O)[C@H]1O [ONPG, ortho-nitrophenyl-β-D galactopyranoside]",apparent Km (compared with LMG P-19143 enzyme),[4]; 10° C.,nearly the same
same,kcat,[4]; 20° C.,199 s⁻¹
same,km (comparison of both enzymes),[4]; at low temperature,comparable
same,kcat relative to that of E. coli enzyme,"[5]; ONPG as substrate, 8° C.",twice as high
same,apparent Km (compared with E. coli enzyme),"[5]; ONPG as substrate, 10° C.",nearly the same
same,kcat,"[5]; ONPG as substrate, 20° C.",408 s⁻¹
same,km (comparison of both enzymes),"[5]; ONPG as substrate, at low temperature",comparable
same,physiological efficiency (kcat/km) relative to E. coli enzyme,"[5]; ONPG as substrate, FIG. 6",about three times higher
same,turnover (kcat) relative to E. coli enzyme,"[5]; ONPG, temperature range of 0-40° C.",higher
OC[C@H]1O[C@@H](O[C@H]2[C@H](O)[C@@H](O)C(O)O[C@@H]2CO)[C@H](O)[C@@H](O)[C@H]1O (stereo partly drawn) [lactose],km relative to E. coli enzyme,[6],five times lower
same,physiological efficiency (kcat/km) relative to E. coli β-galactosidase,[6],eighty times as high; also recorded: ninety times higher
same,turnover (kcat) relative to E. coli enzyme,[6],fifteen times
